# Test results published in the Kinase Knowledgebase extract (Sharma et al. 2016).
# Biological target: EGFR (human) (UniProt P00533)
# Conditions: nci-h1975
# EGFR (human), sequence (P00533 whole entry, looked up): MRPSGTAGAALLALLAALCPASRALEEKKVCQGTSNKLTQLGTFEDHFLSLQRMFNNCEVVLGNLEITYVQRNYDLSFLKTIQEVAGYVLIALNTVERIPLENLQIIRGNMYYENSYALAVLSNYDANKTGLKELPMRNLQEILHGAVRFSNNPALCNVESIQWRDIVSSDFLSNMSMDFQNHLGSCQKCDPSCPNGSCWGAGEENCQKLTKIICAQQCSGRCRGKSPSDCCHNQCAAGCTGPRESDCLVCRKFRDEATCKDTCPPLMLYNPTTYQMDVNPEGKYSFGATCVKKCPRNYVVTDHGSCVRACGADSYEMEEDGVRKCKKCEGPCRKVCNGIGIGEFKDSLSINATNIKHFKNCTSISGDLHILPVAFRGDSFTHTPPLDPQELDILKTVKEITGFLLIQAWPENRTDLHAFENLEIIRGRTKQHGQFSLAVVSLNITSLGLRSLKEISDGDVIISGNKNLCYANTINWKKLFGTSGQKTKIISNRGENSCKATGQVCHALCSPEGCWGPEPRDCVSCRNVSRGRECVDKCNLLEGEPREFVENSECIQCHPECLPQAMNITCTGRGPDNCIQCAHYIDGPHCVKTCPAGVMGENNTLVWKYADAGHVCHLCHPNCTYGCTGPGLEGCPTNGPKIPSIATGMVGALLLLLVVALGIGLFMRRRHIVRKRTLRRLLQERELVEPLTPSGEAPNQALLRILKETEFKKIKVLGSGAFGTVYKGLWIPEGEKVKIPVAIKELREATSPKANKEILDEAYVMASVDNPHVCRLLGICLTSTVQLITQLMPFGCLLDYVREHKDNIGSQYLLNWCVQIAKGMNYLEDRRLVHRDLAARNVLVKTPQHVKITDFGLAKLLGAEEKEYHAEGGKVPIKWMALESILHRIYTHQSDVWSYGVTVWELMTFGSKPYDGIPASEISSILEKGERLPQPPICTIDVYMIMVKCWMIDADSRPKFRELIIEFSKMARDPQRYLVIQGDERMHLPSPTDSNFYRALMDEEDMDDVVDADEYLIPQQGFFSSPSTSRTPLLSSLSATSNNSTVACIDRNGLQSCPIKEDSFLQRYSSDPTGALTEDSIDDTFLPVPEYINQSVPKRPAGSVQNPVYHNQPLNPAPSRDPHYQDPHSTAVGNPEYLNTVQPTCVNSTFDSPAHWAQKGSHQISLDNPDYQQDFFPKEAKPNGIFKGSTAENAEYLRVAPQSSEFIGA
row,IC50 [µM],Structure (SMILES)
1,8,CC(Nc1ncnc2[nH]c(-c3ccc(O)cc3)cc12)c1ccccc1 (stereo not given)

# Same assay, conditions: nci-h1975, concentration not given here
row,Structure (SMILES),inhibition [%]
1,CC(C)(C)c1nc2c3ccc(F)cc3c3c(=O)[nH]ccc3c2[nH]1,< 25
2,O=C(Nc1cc(C(F)(F)F)cc(C(F)(F)F)c1)c1cc(Cl)ccc1O,76
3,CC(C)(C)c1cnc(CSc2cnc(NC(=O)C3CCNCC3)s2)o1,63
4,Cc1cc(C)c(/C=C2\C(=O)Nc3ccc(Cl)cc32)[nH]1,< 25
5,Cc1cc(Nc2cc(N3CCN(C)CC3)nc(Sc3ccc(NC(=O)C4CC4)cc3)n2)[nH]n1,34
6,O=c1ncn2nc(Sc3ccc(F)cc3F)ccc2c1-c1c(Cl)cccc1Cl,< 25
7,COc1cccc(-c2cc(=O)c3ccccc3o2)c1N,< 25
8,CC(C)[C@H](CO)Nc1nc(Nc2ccc(C(=O)O)c(Cl)c2)c2ncn(C(C)C)c2n1,< 25
9,CC(C)(C)n1nc(-c2cccc3ccccc23)c2c(N)ncnc21,60
10,c1ccc(-c2n[nH]cc2-c2ccnc3ccccc23)nc1,< 25
11,OCCC#Cc1nc(-c2ccc(F)cc2)c(-c2ccncc2)n1CCCc1ccccc1,< 25
12,Cn1cc(C2=C(c3ccc(Cl)cc3Cl)C(=O)NC2=O)c2ccccc21,37
13,O=C1Nc2ccc(I)cc2/C1=C\c1cc(Br)c(O)c(Br)c1,< 25

# The remaining lines, values ahead:
row,inhibition [%],Structure (SMILES)
1,55,Cc1cc(Nc2ncc3cc(-c4c(Cl)cccc4Cl)c(=O)n(C)c3n2)ccc1F
2,< 25,Cc1ccc(NC(=O)c2cccc(N(C)C)c2)cc1NC(=O)c1ccc(O)cc1
3,< 25,Cc1ccc(NC(=O)c2ccc(CN3CCN(C)CC3)cc2)cc1Nc1nccc(-c2cccnc2)n1
4,< 25,COc1cc2ncnc(Nc3ccc(OCc4ccccc4)cc3)c2cc1OC
5,35,NC(=O)Nc1sc(-c2ccc(F)cc2)cc1C(N)=O
6,< 25,O=C1NC(=O)C(c2ccccc2[N+](=O)[O-])=C1Nc1ccc(O)c(Cl)c1
